Experiment: Phase 1/2 first-in-human clinical study, safety evaluation (DLT, TEAE, SAE)

C=C1C[C@@H]2CC[C@H]1[C@@H](C(=O)N1CCC3(CC1)CN(c1ncncc1Oc1ccc(F)cc1C(=O)N(C(C)C)C(C)C)C3)N2 [the present compound, 5-fluoro-2-[(4-{7-[(1S,3S,4R)-5-methylidene-2-azabicyclo[2.2.2]octane-3-carbonyl]-2,7-diazaspiro[3.5]nonan-2-yl}pyrimidin-5-yl)oxy]-N,N-di(propan-2-yl)benzamide]
8 (14.0%) n (%): Non-hematological TEAE regardless of causality: Back pain (N=57, Any Grade) | Non-hematological TEAE regardless of causality: Dizziness (N=57, Any Grade) | Non-hematological TEAE regardless of causality: Hypertension (N=57, Any Grade) | Non-hematological TEAE regardless of causality: Pain in extremity (N=57, Any Grade) | Hematological TEAE regardless of causality: Anaemia (N=57, Grade ≥3) | Hematological TEAE regardless of causality: Platelet count decreased (N=57, Grade ≥3)
23 (40.4%) n (%): Non-hematological TEAE regardless of causality: Nausea (N=57, Any Grade) | Non-hematological laboratory change regardless of causality: AST increase (N=57, Any Grade)
1 (1.8%) n (%): Non-hematological TEAE regardless of causality: Arthralgia (N=57, Grade ≥3) | Non-hematological TEAE regardless of causality: Back pain (N=57, Grade ≥3)
13 (22.8%) n (%): Non-hematological TEAE regardless of causality: Dyspnoea (N=57, Any Grade)
15 (26.3%) n (%): Non-hematological TEAE regardless of causality: Decreased appetite (N=57, Any Grade) | Non-hematological TEAE regardless of causality: Headache (N=57, Any Grade)
33 (57.9%) n (%): Non-hematological laboratory change regardless of causality: Hypocalcemia (N=57, Any Grade)
2 (20.0) n (%): TEAE: Disease progression (Arm B N=10, ≥Grade 3) | TEAE: General disorders and administration site disorders (Arm B N=10, ≥Grade 3) | TEAE: Pneumonia (Arm B N=10, ≥Grade 3) | TEAE: Sepsis (Arm B N=10, ≥Grade 3)
1 (10.0) n (%): TEAE: Hypertriglyceridaemia (Arm B N=10, ≥Grade 3) | TEAE: Hypocalcaemia (Arm B N=10, ≥Grade 3) | TEAE: Investigations (Arm B N=10, ≥Grade 3) | TEAE: Musculoskeletal and connective tissue disorders (Arm B N=10, ≥Grade 3) | related TEAE: Aspartate aminotransferase increased (Arm B N=10, ≥Grade 3) | related TEAE: Blood and lymphatic system disorders (Arm B N=10, ≥Grade 3) | related TEAE: Hypertriglyceridaemia (Arm B N=10, ≥Grade 3) | related TEAE: Investigations (Arm B N=10, ≥Grade 3) | related TEAE: Leukocytosis (Arm B N=10, ≥Grade 3) | related TEAE: Metabolism and nutrition disorders (Arm B N=10, ≥Grade 3)
4 (40.0) n (%): TEAE: Infections and Infestations (Arm B N=10, ≥Grade 3) | TEAE: Metabolism and nutrition disorders (Arm B N=10, ≥Grade 3)
9 (15.8%) n (%): Hematological TEAE regardless of causality: Anaemia (N=57, Any Grade) | Hematological TEAE regardless of causality: Platelet count decreased (N=57, Any Grade) | Non-hematological TEAE regardless of causality: Muscular weakness (N=57, Any Grade) | Non-hematological TEAE regardless of causality: Oedema peripheral (N=57, Any Grade) | Non-hematological TEAE regardless of causality: Pyrexia (N=57, Any Grade)
26 (4.6%) n (%): Non-hematological laboratory change regardless of causality: Hypomagnesemia (N=57, Any Grade)
10 (17.5%) n (%): Hematological TEAE regardless of causality: Leukocytosis (N=57, Any Grade) | Non-hematological TEAE regardless of causality: Diarrhoea (N=57, Any Grade) | Non-hematological TEAE regardless of causality: Epistaxis (N=57, Any Grade) | Non-hematological TEAE regardless of causality: Fatigue (N=57, Any Grade) | Non-hematological TEAE regardless of causality: Pneumonia (N=57, Any Grade) | Treatment related adverse event: Nausea (N=57, Any Grade)
45 (7.9%) n (%): Non-hematological laboratory change regardless of causality: Hypertriglyceridemia (N=57, Any Grade)
28 (49.1%) n (%): Non-hematological laboratory change regardless of causality: ALT increase (N=57, Any Grade)
4 (7.0%) n (%): Hematological TEAE regardless of causality: Leukocytosis (N=57, Grade ≥3)
11 (19.3%) n (%): Non-hematological TEAE regardless of causality: Constipation (N=57, Any Grade) | Non-hematological TEAE regardless of causality: Sepsis (N=57, Any Grade) | Non-hematological TEAE regardless of causality: Stomatitis (N=57, Any Grade)
6 (10.5%) n (%): Non-hematological TEAE regardless of causality: Arthralgia (N=57, Any Grade) | Non-hematological TEAE regardless of causality: COVID-19 (N=57, Any Grade) | Non-hematological TEAE regardless of causality: Dysgeusia (N=57, Any Grade) | Non-hematological TEAE regardless of causality: Haemorrhage intracranial (N=57, Any Grade) | Non-hematological TEAE regardless of causality: Myalgia (N=57, Any Grade) | Hematological TEAE regardless of causality: Neutrophil count decreased (N=57, Grade ≥3)
12 (21.1%) n (%): Hematological TEAE regardless of causality: Febrile neutropenia (N=57, Any Grade) | Hematological TEAE regardless of causality: Febrile neutropenia (N=57, Grade ≥3)
34 (7.0%) n (%): Non-hematological laboratory change regardless of causality: Hypokalemia (N=57, Any Grade)
19 (33.3%) n (%): Non-hematological laboratory change regardless of causality: Hypophosphatemia (N=57, Any Grade)
7 (12.3%) n (%): Hematological TEAE regardless of causality: Neutrophil count decreased (N=57, Any Grade) | Non-hematological TEAE regardless of causality: Cough (N=57, Any Grade) | Non-hematological TEAE regardless of causality: Electrocardiogram QT prolonged (N=57, Any Grade) | Non-hematological TEAE regardless of causality: Hypotension (N=57, Any Grade) | Treatment related adverse event: Vomiting (N=57, Any Grade)
20 (35.1%) n (%): Non-hematological TEAE regardless of causality: Vomiting (N=57, Any Grade)
3 (30.0)*^3 n (%): TEAE: Hypokalaemia (Arm B N=10, ≥Grade 3 (not related to the present compound))
32 (56.1%) n (%): Non-hematological laboratory change regardless of causality: Hyponatremia (N=57, Any Grade)
0 n (%): TEAE: Dyspnoea (Arm B N=10, ≥Grade 3) | TEAE: Epistaxis (Arm B N=10, ≥Grade 3) | TEAE: Fatigue (Arm B N=10, ≥Grade 3) | TEAE: Gastrointestinal disorders (Arm B N=10, ≥Grade 3) | TEAE: Headache (Arm B N=10, ≥Grade 3) | TEAE: Hemorrhoids (Arm B N=10, ≥Grade 3) | TEAE: Hypoalbuminaemia (Arm B N=10, ≥Grade 3) | TEAE: Hypomagnaesemia (Arm B N=10, ≥Grade 3) | TEAE: Hyponatraemia (Arm B N=10, ≥Grade 3) | TEAE: Nausea (Arm B N=10, ≥Grade 3) | TEAE: Nervous System Disorders (Arm B N=10, ≥Grade 3) | TEAE: Oedema peripheral (Arm B N=10, ≥Grade 3) | TEAE: Pain in extremity (Arm B N=10, ≥Grade 3) | TEAE: Platelet count decreased (Arm B N=10, ≥Grade 3) | TEAE: Pruritus (Arm B N=10, ≥Grade 3) | TEAE: Pyrexia (Arm B N=10, ≥Grade 3) | TEAE: Respiratory, thoracic and mediastinal disorders (Arm B N=10, ≥Grade 3) | TEAE: Skin and subcutaneous tissue disorders (Arm B N=10, ≥Grade 3) | TEAE: Stomatitis (Arm B N=10, ≥Grade 3) | TEAE: Vomiting (Arm B N=10, ≥Grade 3) | related TEAE: Decreased appetite (Arm B N=10, ≥Grade 3) | related TEAE: Differentiation syndrome (Arm B N=10, ≥Grade 3) | related TEAE: Gastrointestinal disorders (Arm B N=10, ≥Grade 3) | related TEAE: General disorders and administration site conditions (Arm B N=10, ≥Grade 3) | related TEAE: Headache (Arm B N=10, ≥Grade 3) | related TEAE: Hyperuricaemia (Arm B N=10, ≥Grade 3) | related TEAE: Increased appetite (Arm B N=10, ≥Grade 3) | related TEAE: Nausea (Arm B N=10, ≥Grade 3) | related TEAE: Neoplasms benign, malignant and unspecified (incl cysts and polyps) (Arm B N=10, ≥Grade 3) | related TEAE: Nervous system disorders (Arm B N=10, ≥Grade 3) | related TEAE: Thirst (Arm B N=10, ≥Grade 3) | related TEAE: Vomiting (Arm B N=10, ≥Grade 3)

Source: US20260248787A9, “MEDICAMENT FOR TREATING CANCER COMPRISING OPTICALLY ACTIVE AZABICYCLO RING DERIVATIVE” (Sumitomo Pharma Co., Ltd., priority 2023, published 2026)
